Experiments:
[1] = tested on: T1, subtype C HIV-1 RT (cWT), recombinant p66/p51 heterodimer; test: gel-based primer extension, inhibition of full-length DNA synthesis; format: biochemical, Human immunodeficiency virus type 1; conditions: 19D/57D DNA primer/template
T1 construct: gene pol; mature RT cut from Gag-Pol polyprotein; plasmid pcRT6H-PROT, His-tagged, E. coli M15(pREP4); with p51 RT
Excerpt: gel-based primer extension, inhibition of full-length DNA synthesis on subtype C HIV-1 RT (cWT), recombinant p66/p51 heterodimer | we determined the efficiencies of incorporation of TFV-DP using subtype C WT

[2] = target: T1, subtype C HIV-1 RT (cWT), recombinant p66/p51 heterodimer; test: steady-state filter-binding assay, [3H]dATP incorporation; format: biochemical, Human immunodeficiency virus type 1; conditions: dPR primer on subtype C HIV-1 PBS RNA, 50 μM dCTP/dGTP/dTTP, 5 mM MgCl2, pH 7.8, 37°C
Excerpt: steady-state filter-binding assay, [3H]dATP incorporation on subtype C HIV-1 RT (cWT), recombinant p66/p51 heterodimer

Compound	IC50 [1] [nM]	Ki ([2]; variable dATP, chain terminator, read-out: Ki(TFV), μM^b) [µM]	Km ([2]; no TFV-DP) [µM]
C[C@H](Cn1cnc2c(N)ncnc21)OCP(=O)(O)OP(=O)(O)OP(=O)(O)O [TFV-DP]	2600 ± 500	0.24 ± 0.04	–
Nc1ncnc2c1ncn2[C@H]1C[C@H](O)[C@@H](COP(=O)(O)OP(=O)(O)OP(=O)(O)O)O1 [dATP]	–	–	0.51 ± 0.04
